The subject of one test is Gli-Luc/MEF cells (Smo). Put plainly: Gli-Luc/MEF assay (Shh-stimulated luciferase reporter under the Gli response element). It is filed as cell-based, mouse. Conditions: Mus musculus, MEF, 48 h. Summed up: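 IC50 derived from luminescence (Bright-Glo) after 48 h at 37° C, 5% CO2, with compound at […] (3-fold dilutions) added together with mouse Shh at 2 μg/mL final. Cells: MEFs from Gli-Luc transgenic mice.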
On the technique in general: Reporter assays use an easily measured gene product as a stand-in for the process of interest.

Test [1] addresses T1, human Smo (amino acids 181-787) (Homo sapiens, UniProt Q99835).
T1 construct: expressed in transfected cells; membrane preparation
Kind of test: Smo radioligand competition binding assay (displacement of 3H-PF-03451358 from HEK293 membranes). Conditions: for inhibition at 0.05 µM: 0.05 μM test compound, displacement of 3H-PF-03451358, read-out: SMO % inh. @ 0.05 μM; for pIC50: radioligand competition binding. In a few lines:
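Displacement of 3 nM tritiated PF-03451358 measured by filtration and scintillation counting after 2 h at room temperature, using 40 μg/well HEK293 membranes bearing cell-surface Smo 181-787, pH 7.5 buffer. Specific binding defined against 30 μM unlabelled ligand; IC50 via variable-slope sigmoidal fit.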

The source of these data is patent US20120157471A1, “BENZIMIDAZOLE DERIVATIVES” (PFIZER INC., priority 2009, published 2012).

pIC50: −log10 of the molar value.

The term pIC50 denotes the IC50 on a negative log10 scale, so that one unit is a factor of ten. A higher pIC50 goes with a low IC50.

T1 sequence (Q99835 181-787): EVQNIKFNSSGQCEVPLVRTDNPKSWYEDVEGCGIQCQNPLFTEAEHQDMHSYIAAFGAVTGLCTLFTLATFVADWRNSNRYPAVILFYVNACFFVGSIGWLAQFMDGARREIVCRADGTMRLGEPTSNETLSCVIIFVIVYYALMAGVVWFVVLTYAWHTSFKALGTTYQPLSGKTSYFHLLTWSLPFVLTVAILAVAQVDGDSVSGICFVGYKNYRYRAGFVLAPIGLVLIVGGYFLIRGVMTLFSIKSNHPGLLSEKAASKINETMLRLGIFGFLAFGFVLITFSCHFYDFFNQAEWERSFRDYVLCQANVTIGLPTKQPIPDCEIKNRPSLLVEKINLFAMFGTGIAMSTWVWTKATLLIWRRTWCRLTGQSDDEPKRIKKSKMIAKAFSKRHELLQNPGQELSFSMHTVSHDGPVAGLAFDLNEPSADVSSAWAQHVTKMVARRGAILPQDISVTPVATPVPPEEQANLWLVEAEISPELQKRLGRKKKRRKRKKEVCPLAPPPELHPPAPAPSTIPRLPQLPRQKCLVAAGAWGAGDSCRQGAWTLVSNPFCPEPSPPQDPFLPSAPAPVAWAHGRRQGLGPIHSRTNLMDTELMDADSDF

The compound `Cn1c(-c2cc(N3CCc4[nH]cnc4C3)ncc2Cl)nc2ccccc21` [Example A-107, 5-[5-chloro-4-(1-methyl-1H-benzimidazol-2-yl)pyridin-2-yl]-4,5,6,7-tetrahydro-1H-imidazo[4,5-c]pyridine] showed a pIC50 in the test with Gli-Luc/MEF cells (Smo) of 7.43. In test [1], the inhibition at 0.05 µM was determined as 77% and the pIC50 is 6.91.
In the test on Gli-Luc/MEF cells (Smo), `CNC(=O)N1CCN(c2cc(-c3nc4ccccc4n3C)c(F)cn2)CC1` [Example D-7, 4-[5-fluoro-4-(1-methyl-1H-benzimidazol-2-yl)pyridin-2-yl]-N-methylpiperazine-1-carboxamide] had a pIC50 of 7.27. Moreover, in test [1], the inhibition at 0.05 µM was determined as 88% and the pIC50 was 7.33.
For `CC(=O)NC1CCN(c2ccc(Cl)c(-c3nc4ccccc4n3C)n2)CC1` [Example B-11, N-{1-[5-chloro-6-(1-methyl-1H-benzimidazol-2-yl)pyridin-2-yl]piperidin-4-yl}acetamide], the pIC50 in the test on Gli-Luc/MEF cells (Smo) is 8.15. Further, in test [1], the inhibition at 0.05 µM was 98% and the pIC50 is 7.80.
With `CC1CC2(CCN1c1cc(-c3nc4ccccc4n3C)c(Cl)cn1)CNC(=O)C2` (stereo in doubt) [Example A-48, (5R,7S)-8-[5-chloro-4-(1-methyl-1H-benzimidazol-2-yl)pyridin-2-yl]-7-methyl-2,8-diazaspiro[4.5]decan-3-one], the pIC50 with Gli-Luc/MEF cells (Smo) was 8.15. In test [1], the inhibition at 0.05 µM was 100% and the pIC50 was 8.15.
In the case of `Cn1c(-c2cc(N3CCC(NS(C)(=O)=O)CC3)ncc2Cl)nc2ccccc21` [Example A-5, N-{1-[5-chloro-4-(1-methyl-1H-benzimidazol-2-yl)pyridin-2-yl]piperidin-4-yl}methanesulfonamide], the pIC50 in the test on Gli-Luc/MEF cells (Smo) was 9.22. In test [1], the inhibition at 0.05 µM is 97% and the pIC50 is 8.10.
Taken in the same sequence, the figures for `CC(=O)NC1CCN(c2cc(-c3nc4ccccc4n3C)ccn2)CC1` [Example A-16, N-{1-[4-(1-methyl-1H-benzimidazol-2-yl)pyridin-2-yl]piperidin-4-yl}acetamide] were 7.19, 81% and 6.99.
For `CC(=O)NC1CCN(c2cc(-c3nc4ccccc4n3C)c(F)cn2)CC1` [Example D-14, N-{1-[5-fluoro-4-(1-methyl-1H-benzimidazol-2-yl)pyridin-2-yl]piperidin-4-yl}acetamide] the same measures were 7.76, 97% and 7.72.
As for `CC(=O)N1CCN(c2cc(-c3nc4ccccc4n3C)c(F)cn2)CC1` [Example D-1, 2-[2-(4-acetylpiperazin-1-yl)-5-fluoropyridin-4-yl]-1-methyl-1H-benzimidazole], the negative logarithm of the IC50 (pIC50) in the test with Gli-Luc/MEF cells (Smo) is 7.57; in test [1] it was 7.66. Moreover, in test [1], the inhibition at 0.05 µM amounted to 97%.
`CC(=O)NC1CCN(c2cc(-c3nc4ccccc4n3C)c(Cl)cn2)C1` (stereo in doubt) [Example A-116, N-{(3R)-1-[5-chloro-4-(1-methyl-1H-benzimidazol-2-yl)pyridin-2-yl]pyrrolidin-3-yl}acetamide]: the pIC50 with Gli-Luc/MEF cells (Smo) was 7.07. Besides, in test [1], the inhibition at 0.05 µM amounted to 68%.
Turning to `COC(=O)NC1CN(c2cc(-c3nc4ccccc4n3C)c(Cl)cn2)C1` [Example A-44], the pIC50 in the test with Gli-Luc/MEF cells (Smo) was 7.66; in test [1], 7.23. For the same compound, the inhibition at 0.05 µM in test [1] came out at 89%.
In turn, `Cn1c(-c2cc(N3CCC(O)CC3)ncc2Cl)nc2ccccc21` [Example A-25, 1-[5-chloro-4-(1-methyl-1H-benzimidazol-2-yl)pyridin-2-yl]piperidin-4-ol] showed a negative-log IC50 (pIC50) in the test with Gli-Luc/MEF cells (Smo) of 8.15. Further, in test [1], the inhibition at 0.05 µM amounted to 91% and the pIC50 is 8.10.
`Cn1c(-c2cc(N3CCC(NS(C)(=O)=O)CC3)ncc2F)nc2ccccc21` [Example D-11, N-{1-[5-fluoro-4-(1-melhyl-1H-benzimidazol-2-yl)pyridin-2-yl]piperidin-4-yl}methanesulfonamide]: the pIC50 is 8.38 in the test with Gli-Luc/MEF cells (Smo) and 8.22 in test [1]. Also, in test [1], the inhibition at 0.05 µM worked out at 98%.
For `Cn1c(-c2cc(N3CCN(C(=O)CO)CC3)ncc2Cl)nc2ccccc21` [Example A-202, 2-{4-[5-chloro-4-(1-methyl-1H-benzimidazol-2-yl)pyridin-2-yl]piperazin-1-yl}-2-oxoethanol] the same measures were 8.05, 7.96 and 97%.
With `COC(=O)N1CCN(c2cc(-c3nc4ccccc4n3C)c(F)cn2)CC1` [Example D-2, methyl 4-[5-fluoro-4-(1-methyl-1H-benzimidazol-2-yl)pyridin-2-yl]piperazine-1-carboxylate], the negative logarithm of the IC50 (pIC50) in the test with Gli-Luc/MEF cells (Smo) is 7.89. Further, in test [1], the inhibition at 0.05 µM is 95% and the pIC50 was 7.89.
For `Cn1c(-c2cc(N3CCN(S(=O)(=O)CC(C)(C)O)CC3)ncc2F)nc2ccccc21` [Example D-16, 1-({4-[5-fluoro-4-(1-methyl-1H-benzimidazol-2-yl)pyridin-2-yl]piperazin-1-yl}sulfonyl)-2-methylpropan-2-ol], the pIC50 in the test on Gli-Luc/MEF cells (Smo) is 8.52; in test [1] it was 8.05. In test [1], the inhibition at 0.05 µM was determined as 94%.
As for `COC(=O)N(C)C1CN(c2cc(-c3nc4ccccc4n3C)c(Cl)cn2)C1` [Example A-150, methyl {1-[5-chloro-4-(1-methyl-1H-benzimidazol-2-yl)pyridin-2-yl]azetidin-3-yl}methylcarbamate], the negative logarithm of the IC50 (pIC50) in the test on Gli-Luc/MEF cells (Smo) is 7.64. Moreover, in test [1], the inhibition at 0.05 µM turned out to be 87% and the pIC50 is 7.25.
In turn, `Cn1c(-c2cc(N3CCC(C#N)CC3)ncc2Cl)nc2ccccc21` [Example A-75, 1-[5-chloro-4-(1-methyl-1H-benzimidazol-2-yl)pyridin-2-yl]piperidine-4-carbonitrile] showed a pIC50 in the test on Gli-Luc/MEF cells (Smo) of 7.96. For the same compound, in test [1], the inhibition at 0.05 µM turned out to be 92% and the pIC50 is 7.64.
Compound `C[C@@H]1CN(S(C)(=O)=O)CCN1c1cc(-c2nc3ccccc3n2C)c(Cl)cn1` [Example A-166, 2-{5-chloro-2-[(2R)-2-methyl-4-(methylsulfonyl)piperazin-1-yl]pyridin-4-yl}-1-methyl-1H-benzimidazole] gave a pIC50 in the test on Gli-Luc/MEF cells (Smo) of 8.40. For the same compound, the inhibition at 0.05 µM in test [1] came out at 102%.
Turning to `CCn1c(-c2cc(N3CCN(C(C)=O)CC3)ncc2Cl)nc2ccccc21` [Example A-214, 2-[2-(4-acetylpiperazin-1-yl)-5-chloropyridin-4-yl]-1-ethyl-1H-benzimidazole], in the test with Gli-Luc/MEF cells (Smo), the pIC50 is 6.91. Also, in test [1], the inhibition at 0.05 µM is 63% and the pIC50 was 6.36.
For `Cc1nnc(C2CCN(c3cc(-c4nc5ccccc5n4C)c(Cl)cn3)CC2)o1` [Example A-97, 2-{5-chloro-2-[4-(5-methyl-1,3,4-oxadiazol-2-yl)piperidin-1-yl]pyridin-4-yl}-1-methyl-1H-benzimidazole] the same measures were 7.60, 85% and 7.49.
For the compound `Cc1cnc(N2CCC(S(C)(=O)=O)CC2)cc1-c1nc2ccccc2n1C` [Example E-5, 1-methyl-2-{5-methyl-2-[4-(methylsulfonyl)piperidin-1-yl]pyridin-4-yl)-1H-benzimidazole], the pIC50 (in the test on Gli-Luc/MEF cells (Smo); in test [1]) was 7.23 each time. In addition, the inhibition at 0.05 µM in test [1] was determined as 89%.
As for `Cn1c(-c2cc(N3CCC(C(=O)N4CCOCC4)CC3)ncc2Cl)nc2ccccc21` [Example A-80, 2-{5-chloro-2-[4-(morpholin-4-ylcarbonyl)piperidin-1-yl]pyridin-4-yl}-1-methyl-1H-benzimidazole], the pIC50 is 8.10 with Gli-Luc/MEF cells (Smo) and 7.35 in test [1]. Also, in test [1], the inhibition at 0.05 µM worked out at 92%.
With `CC1C(=O)NCCN1c1cc(-c2nc3ccccc3n2C)c(Cl)cn1` (stereo not shown) [Example A-171, 4-[5-chloro-4-(1-methyl-1H-benzimidazol-2-yl)pyridin-2-yl]-3-methylpiperazin-2-one], the pIC50 in the test with Gli-Luc/MEF cells (Smo) is 7.55; in test [1], 7.51. Besides, the inhibition at 0.05 µM in test [1] stood at 97%.
In the test on Gli-Luc/MEF cells (Smo), `Cn1c(-c2cc(N3CCN(C(=O)CCS(C)(=O)=O)CC3)ncc2F)nc2ccccc21` [Example D-18, 1-{4-[5-fluoro-4-(1-methyl-1H-benzimidazol-2-yl)pyridin-2-yl]piperazin-1-yl}-3-(methylsulfonyl)propan-1-one] had a negative logarithm of the IC50 (pIC50) of 8.52. Also, in test [1], the inhibition at 0.05 µM came out at 100% and the pIC50 was 7.96.
In the case of `Cn1c(-c2cc(N3CCC(NS(C)(=O)=O)C3)ncc2Cl)nc2ccccc21` (stereo not shown) [Example A-153, N-{1-[5-chloro-4-(1-methyl-1H-benzimidazol-2-yl)pyridin-2-yl]pyrrolidin-3-yl}methanesulfonamide], the pIC50 in the test on Gli-Luc/MEF cells (Smo) was 7.82. Besides, in test [1], the inhibition at 0.05 µM is 93% and the pIC50 is 7.64.
`Cn1c(-c2cc(N3C[C@@H]4[C@H](C3)[C@H]4NS(C)(=O)=O)ncc2Cl)nc2ccccc21` [Example A-8, N-{(1R,5S,6S)-3-[5-chloro-4-(1-methyl-1H-benzimidazol-2-yl)pyridin-2-yl]-3-azabicyclo[3.1.0]hex-6-yl}methanesulfonamide] had a pIC50 with Gli-Luc/MEF cells (Smo) of 7.82. Further, in test [1], the inhibition at 0.05 µM was 94% and the pIC50 is 7.19.
Turning to `Cn1c(-c2cc(N3CCC(S(C)(=O)=O)C3)ncc2Cl)nc2ccccc21` (stereo not shown) [Example A-24, 2-{5-chloro-2-[3-(methylsulfonyl)pyrrolidin-1-yl]pyridin-4-yl}-1-methyl-1H-benzimidazole], the pIC50 with Gli-Luc/MEF cells (Smo) was 7.70; in test [1], 7.27. For the same compound, in test [1], the inhibition at 0.05 µM is 82%.
